Consider one molecule from patent US6262021A, “Use of substances having oxytocin activity for preparation of medicaments for wound healing” (EntreTech Medical AB, priority 1997, dated 2001).

Test [1] has as its system musculocutaneous flaps. Kind of test: Survival of musculocutaneous flaps in rats after administration of oxytocin (Test 1). The format is in vivo, rats (Sprague-Dawley). The note with it: 1 mg/kg s.c. 24 h and 1 h before and 24 h after operation; estimated six days after operation; oxytocin p<0.05, antagonist no significance p=0.13. An excerpt:
An established model of wound healing is to investigate the survival of musculocutaneous flaps in rats. In plastic surgery, reconstructive problems are often solved by surgical flaps. The main disadvantage of surgical flaps has been their tendency to develop ischemia and eventually necrosis of the distal part. This complication can in the end ruin what postoperatively seemed to be an excellent result. Much research has been devoted to explain the mechanisms of surgical skin flap survival and how to prevent and reverse established ischemia.
The aim of this study was to investigate the effects of oxytocin on the survival of musculocutaneous flaps in rats.
71 female albino rats (Sprague-Dawley, weight 180-220 g) were anaesthetized with chloralhydrate (0.4 g/kg), shaved on the back and a dorsal cranially based standard flap (2×7 cm) was elevated and then sutured back in position. The flap was raised from the deep fascia of muscle and included the superficial fascia, panniculus carnosus, subcutaneous tissue and skin. 24 h and 1 h before operation, respectively, as well as 24 h after operation the rats were treated with 1 mg/kg oxytocin s.c. (n=20), an oxytocin antagonist, that is 1-deamino-2-D-Tyr-(OEt)-4-Thr-8-Orn-oxytocin in an amount of 1 mg/kg (n=15), with 1 mg/kg of said oxytocin antagonist and then after 30 minutes with 1 mg/kg oxytocin (n=16), or with saline (n=20). […]

Test [2] deals with NGF. The note with it: intravenous injection, female rats; cited from earlier work.
Test [3] has as its system FGF-1. Kind of test: Concentration of FGF in skin biopsies from the injured area of diabetic mice. It is filed as in vivo, C57BL/Ks-db/db diabetic mice. To be noted: 10 μg/cm^2 oxytocin; skin biopsies 7 days after injury; ten mice; p<0.001. Here is the method: The concentration of FGF was compared in skin biopsies taken from the injured area ("ulcer") of ten mice treated with 10 μg/cm^2 oxytocin and ten mice treated with PBS 7 days after injury. […] This increase in concentration was highly significant (p<0.001) and strongly support the hypothesis that oxytocin increases wound healing through an increased expression and synthesis of FGF-1.

In test [4] the test system is central α2 -receptors. Put plainly: Activity of central α2-receptors after oxytocin. The format is in vivo. The note with it: rats; by way of a central action. An excerpt:
Experiments have shown that oxytocin by way of a central action increases the activity of the central α2 -receptors in rats. These receptors have an inhibitory action and counteracts the activating aspects of noradrenalin in the brain which are mainly mediated via α1 -receptors, which activate cyclic AMP. When α2 -receptor stimulation dominates over α1 -receptor stimulation, activity is exchanged by relaxation and energy is shunted towards growing and healing, i.e. is not used for stress or muscular contraction and activity. As a consequence parasympathetic nerve tone dominates over sympathetic nervous tone and the musculature is relaxed. It can be presumed that oxytocin exerts a similar effect also in humans. During breast feeding--a situation characterized by repetitive oxytocin secretion--all the effects observed in experimental animals following repeated oxytocin administration are seen. It is not known how the effect by oxytocin on α2 -receptors is mediated, but probably not by a classical oxytocin receptor mediated effect.

Test [5] concerns full-thickness dermal excisional wounds. Kind of test: Wound healing in diabetic mice after administration of oxytocin (Test 2). The format is in vivo, C57BL/Ks-db/db diabetic mice. An excerpt:
For studying the effects of cutaneous wound-healing agents on chronic non-healing dermal ulcers the mutant C57BL/Ks-db/db diabetic mouse has emerged as a potentially relevant healing-impaired model. These homozygous genetically diabetic mice develop obesity and hyper-glycemia that is resistant to insulin, analogous to human type II diabetes. They also show signs of diabetes such as excessive drinking and urination and greatly elevated urinary glucose levels. […] Previous studies have used this model to evaluate formulations of aFGF.
Female C57BL/Ks-db/db diabetic mice, 11 weeks old, were obtained from Jackson Laboratories (Bar Harbor, Me.). The mice were housed in sterile microisolator boxes (four per box) with sterile water and bedding and were kept in a semi-barrier quarantine facility. Supplemental heat was provided with electric heating pads under half of each box after wounding to prevent hypothermia and reduce mortality.
Mice were anesthetized with intraperitoneal injections of 110 mg ketamine and 9 mg xylazine per kg of body weight. The mid-back and thoracic skin was shaved and disinfected with a 2% Chlorhexidine surgical scrub, followed by 70% ethanol. A template 1.6 cm in diameter was used to mark a 2.0 cm^2 circle on the mid-dorsal area, and a single full-thickness wound was created by blunt excision with sterile curved iris scissors. […] All surgical and subsequent healing analysis procedures were performed in a laminar flow hood using full aseptic techniques. Doses were administrated on 5 consecutive days before, and on day 0, 3 and 7 after injury. Oxytocin was administrated at different doses, 0.001, 0.01, 0.1, 1.0, 10.0 and 100.0 μg/cm^2 , respectively, to groups of 16 mice per dose. The wounds were covered with a semitransparent Bioclusive dressing (Johnson & Johnson Products, New Brunswick, N.J.) for protection, maintenance of a moist environment and prevention of crust formation. Wound fluid samples were taken at day 10 after injury and cultured for aerobic and anaerobic microorganisms.
Wound appearances were recorded photographically and their perimeters were traced onto sterile glass slides applied directly to the exposed wound surfaces after pre-wetting with a drop of sterile physiologic saline. Measurements were made immediately after wounding and twice weekly thereafter until the wounds were completely closed. Wound areas and perimeters were determined from the glass-slide tracings using computerized image analysis. Statistical significances of differences between groups were evaluated using an unpaired two-tailed Student t-test.
Healing expressed as a decrease in percent initial area was converted to linear ingrowth from the wound edges by dividing the differences in wound areas by the average wound perimeters at sequential time intervals. Total ingrowth at a specific time is the sum of the incremental ingrowth distances up until that time. This transformation linearized closure as a function of time, thereby allowing expression of healing as kinetic rates that were constant over time.
Wounds, examined twice weekly to monitor time to total closure, were considered fully healed when moist granulation tissue was no longer apparent, indicating a functional epidermal water-permeability barrier. Closure was also confirmed histologically. Time-point comparisons of the fraction of healed versus unhealed wounds were analyzed by the X^2 statistic with Yates correction, and group comparisons of absolute days to total closure for individual animals were analyzed by an unpaired two-tailed Student t-test.

Structures are written as SMILES.

`CC[C@H](C)[C@@H]1NC(=O)[C@H](Cc2ccc(O)cc2)NC(=O)[C@@H](N)CSSC[C@@H](C(=O)N2CCC[C@H]2C(=O)N[C@@H](CC(C)C)C(=O)NCC(N)=O)NC(=O)[C@H](CC(N)=O)NC(=O)[C@H](CCC(N)=O)NC1=O` [oxytocin]: the “survival of the flaps compared to the saline-treated controls” value in test [1] is recorded as “significantly higher”. Besides, in test [2], the “hypothalamic levels of NGF” value is listed as “increase”. The “FGF-1 synthesized, increase compared to PBS vehicle treated mice” value in test [3] is 162%. Moreover, in test [4], the “activity of the central α2 -receptors” value was “increases”. Moreover, the “healing rates over paired vehicle controls” value is “ineffective” in test [5] (0.001 μg/cm^2, 0.01 μg/cm^2 and 0.1 μg/cm^2 doses); “significant dose-related increases” in test [5] (three topical applications, 1 to 100 μg/cm^2 per dose, first week after injury). Moreover, the “linear rate of healing from the wound edges” value in test [5] (10 μg/cm^2, all time intervals, p≤0.01) is listed as “increased”. Moreover, the “enhancement of the healing rate of treated wounds” value in test [5] (10 μg/cm^2, as early as day 7 after injury and throughout the test period, p≤0.01) is on record as “Statistically significant enhancements”. Besides, the “total closure (fraction of wounds closed)” value in test [5] (10 μg/cm^2, by day 14, p≤0.05) is on record as “increases”. In addition, in test [5] (10 μg/cm^2, day 14), the “decrease in wound size in treated mice compared with PBS/heparin vehicle” value turned out to be 10 fold. Moreover, the “maximum difference in percent of initial area between oxytocin and vehicle-treated wounds” value in test [5] (10 μg/cm^2, from 14 d after injury) is on record as 50%. Also, the “mean linear healing rate” value in test [5] (10 μg/cm^2, vehicle-treated group 0.18 mm/d, p≤0.01) amounted to 0.45 mm/d. Also, the “decrease of time to total closure” value in test [5] (0.001-μg/cm^2 and 0.01 μg/cm^2 doses) was “ineffective”. For the same molecule, in test [5] (1 to 100 μg/cm^2 per dose), the “time required for wounds to close completely” value was “significantly reduced”. Further, the “wounds closed sooner than respective vehicle controls” value in test [5] (dose range 1.0 to 10.0 μg/cm^2) is “approximately 10 d”. The “wound closure compared with vehicle control” value in test [5] (three doses of 10 μg per cm^2 initial wound area during first week after wounding, topical) was “substantially faster”. In test [5] (three doses of 10 μg/cm^2 during first week after injury, vehicle 52 d, p≤0.0001), the “median time to complete closure” value was 23 days.
